Measurements as given in PubChem BioAssay (NCI).
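Values below derive from 48-hour exposures of cells grown in 96-well plates, with endpoints linearly interpolated between the two concentrations bracketing the appropriate inhibition level. TGI: concentration producing complete growth inhibition.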

Experiments:
Assay in all cases: NCI anticancer screen, dose series, 48 h
A549 NSCLC = test system: A549 NSCLC
CAKI-1 renal = test system: CAKI-1 renal
CCRF-CEM leukemia = test system: CCRF-CEM leukemia
EKVX NSCLC = test system: EKVX NSCLC
HL-60(TB) leukemia = test system: HL-60(TB) leukemia
HOP-62 NSCLC = test system: HOP-62 NSCLC
HS 578T breast = test system: HS 578T breast
IGROV1 ovarian = test system: IGROV1 ovarian
MALME-3M melanoma = test system: MALME-3M melanoma
MCF7 breast = test system: MCF7 breast
MDA-MB-435 = test system: MDA-MB-435
NCI/ADR-RES ovarian = test system: NCI/ADR-RES ovarian
OVCAR-5 ovarian = test system: OVCAR-5 ovarian
SK-MEL-28 melanoma = test system: SK-MEL-28 melanoma
SNB-75 CNS = test system: SNB-75 CNS
SR leukemia = test system: SR leukemia
T-47D breast = test system: T-47D breast
TK-10 renal = test system: TK-10 renal
U251 CNS = test system: U251 CNS
MDA-N = test system: MDA-N

Compound | TGI (A549 NSCLC) [µM] | TGI (CAKI-1 renal) [µM] | TGI (CCRF-CEM leukemia) [µM] | TGI (EKVX NSCLC) [µM] | TGI (HL-60(TB) leukemia) [µM] | TGI (HOP-62 NSCLC) [µM] | TGI (HS 578T breast) [µM] | TGI (IGROV1 ovarian) [µM] | TGI (MALME-3M melanoma) [µM] | TGI (MCF7 breast) [µM] | TGI (MDA-MB-435) [µM] | TGI (NCI/ADR-RES ovarian) [µM] | TGI (OVCAR-5 ovarian) [µM] | TGI (SK-MEL-28 melanoma) [µM] | TGI (SNB-75 CNS) [µM] | TGI (SR leukemia) [µM] | TGI (T-47D breast) [µM] | TGI (TK-10 renal) [µM] | TGI (U251 CNS) [µM] | TGI (MDA-N) [µM]
COc1nc(C(=O)NNC(=O)c2nc(OC)c3ccccc3c2-c2ccccc2)c(-c2ccccc2)c2ccccc12 | > 100 | > 100 | > 100 | > 100 | > 100 | > 100 | > 100 | > 100 | > 100 | > 100 | > 100 | > 100 | > 100 | > 100 | > 100 | > 100 | > 100 | > 100 | > 100 | 
O=[N+]([O-])c1ccccc1S(=O)(=O)c1cc(Cl)cc2c1NCCC2 | > 100 | > 100 | > 100 | > 100 | > 100 | > 100 | > 100 | > 100 | 74.1 | > 100 | > 100 | > 100 | > 100 | > 100 | > 100 | > 100 |  | > 100 |  | 
CC(=O)n1nc(-c2ccccc2)n(/N=C/c2ccc([N+](=O)[O-])cc2)c1=O | > 100 | > 100 | > 100 | > 100 | > 100 |  |  | > 100 | > 100 |  | > 100 | > 100 | > 100 | > 100 | > 100 | > 100 | > 100 | > 100 | > 100 | > 100
N#CSC#Cc1ccc(C#CSC#N)cc1 | 33.7 | 31.6 | > 100 | 37.2 | > 100 | 39.3 | 48.8 | 30.5 | 51.9 | 38.6 | 45.4 | 42.5 | 34.9 | 57.2 |  | > 100 |  | 31.3 | 41.8 | 34.5
O=S(=O)(c1ccccc1)n1c2cc3cccnc3nc2c2cccnc21 | > 100 | > 100 | > 100 | > 100 | 48.1 | > 100 | > 100 | > 100 | > 100 | > 100 | 60 | > 100 | > 100 | > 100 | > 100 | 30.4 |  | > 100 | > 100 | > 100
CC(=O)Nc1ccc(C(=O)NN2C(=O)C(Cl)C2c2ccccc2)cc1 (configuration not stated) | > 100 | > 100 | > 100 | > 100 | > 100 | > 100 |  | > 100 | > 100 |  |  |  | > 100 | > 100 | > 100 |  |  | > 100 | > 100 | 
Cc1cc(C)c(S(=O)(=O)N2CCCN(S(=O)(=O)c3c(C)cc(C)cc3C)OCCCON(S(=O)(=O)c3c(C)cc(C)cc3C)CCCN(S(=O)(=O)c3c(C)cc(C)cc3C)OCCCO2)c(C)c1 | > 100 | > 100 | > 100 | > 100 | > 100 | > 100 | > 100 | > 100 | > 100 | > 100 | > 100 | > 100 | > 100 | > 100 | > 100 | > 100 |  | > 100 | > 100 | > 100
NC(=O)C(N)Cc1ccc(O)cn1 (configuration not stated) | > 100 | > 100 | > 100 | > 100 | > 100 | > 100 | > 100 | > 100 | > 100 | > 100 | > 100 | > 100 | > 100 | > 100 | > 100 | > 100 |  | > 100 | > 100 | > 100
NS(=O)(=O)c1nn2c(Br)c(-c3ccccc3)nc2s1 | 21.6 | 9.72 | 11 | 31.9 | 36.4 | 29.5 | 30.7 | 23.3 | 13.7 | 16 | 16.3 | 12.6 | 24.3 | 23.1 | 19.5 | > 33.8 | 12.2 | 17.7 | 15.6 | 
CC1CC(N)=Nc2ccccc2N1 (configuration not stated) | > 100 | > 100 | > 100 | > 100 | > 100 | > 100 | > 100 | > 100 | > 100 |  | > 100 | > 100 | > 100 | > 100 | > 100 |  |  | > 100 | > 100 | > 100
COc1cc(C[S+]2CCCC2)c(SC)cc1C[S+]1CCCC1 | > 100 | > 100 | > 100 | > 100 | > 100 | > 100 |  | > 100 | > 100 |  |  |  | > 100 | > 100 | > 100 |  |  | > 100 | > 100 | 
O=C1OC[C@@H]2Cc3cc4c(cc3[C@H](c3ccc5c(c3)OCO5)[C@@H]12)OCO4 | > 25 | > 25 | > 25 | > 25 | > 25 | > 25 |  |  | > 25 | > 25 | > 25 | > 25 | > 25 | > 25 |  | > 25 |  | > 25 | > 25 | 21.6
Cc1nc2ccccc2c(=O)n1NC(=O)c1ccc(CS)cc1 | 64.5 |  | 3.6 | 66.2 | > 100 | 42.4 | 95.4 | 27.2 | 69.9 | 26.2 | 31.3 | > 100 | 83.9 | 28.8 | > 100 | 43.1 | 87.6 |  | 23.3 | 
CCC(C)(C)/C(CC(O)(C(F)(F)F)C(F)(F)F)=N\O | > 100 | > 100 | > 100 | > 100 | > 100 | > 100 | > 100 | > 100 | > 100 |  | > 100 | > 100 | > 100 | > 100 | > 100 | > 100 | > 100 | > 100 | > 100 | > 100
CN(c1ccc(Cl)cc1)S(=O)(=O)c1cccc([N+](=O)[O-])c1 | > 100 | > 100 | > 100 | > 100 |  | > 100 | > 100 | > 100 | > 100 | > 100 | > 100 | > 100 | > 100 | > 100 | > 100 | > 100 |  | > 100 | > 100 | > 100
COc1ccc(C2CC(=O)CC(c3ccc(OC)cc3)C23C(=O)NC(=O)NC3=O)cc1 (configuration not stated) |  | 65.3 | > 100 | > 100 | 81 | 82.2 |  | 80 | 73 | > 100 | 61.6 | > 100 | > 100 | 43.7 | 67.1 | > 100 |  | > 100 | > 100 | 86.4
CCc1nc(N)nc(N)c1-c1ccc(Cl)c(Cl)c1 | > 100 | > 100 | > 100 | > 100 | > 100 | > 100 | > 100 | > 100 | > 100 | > 100 | > 100 | > 100 | > 100 | > 100 | > 100 | > 100 | > 100 | > 100 | > 100 | 
Cc1cc2nc3c(C#N)c(-c4ccccc4)cc(Nc4ccc(Cl)cc4)n3c2cc1C | > 100 | > 100 | > 100 | > 100 |  | > 100 |  |  | > 100 | > 100 | > 100 | > 100 | > 100 | > 100 | > 100 |  | > 100 | > 100 | > 100 | > 100
S=C(NCc1ccccc1)c1nc[nH]c1C(=S)NCc1ccccc1 | 15.1 | 18.7 | 12.1 | 17 | 25.5 | 26.2 |  | 19.8 | 24.6 |  | 19.6 | 16.3 | 21.7 | 26.9 | 19.5 |  | 17.4 | 23.9 | 18.4 | 23
c1ccc2sc(C3(N4CCCC4)CCCCCC3)cc2c1 | 43 | 61.2 | 24.2 | 33 | 35.4 | 36.1 |  | 46.2 |  | 33.2 | 31.7 | 44.4 | 25.2 | 37.9 | 34.5 | 44.1 |  | 45.1 | 30.9 | 32.1
CC(C)(Cc1ccccc1)NC1=NCCO1 | > 100 | > 100 | > 100 | > 100 | > 100 |  | > 100 | > 100 | > 100 | > 100 | > 100 | > 100 | > 100 | > 100 | > 100 | > 100 |  | > 100 | > 100 | > 100
CS(=O)(=O)Nc1ccc(N2Cc3cnc4ccc5[nH]ccc2c5c34)cc1 | > 100 | > 100 | > 100 | > 100 | 64.4 | 59.2 | > 100 | 79.9 | 19.1 | > 100 | 31.5 | > 100 | 84.5 | 41.6 |  |  | 20.5 | 89.1 | 36.5 | 29.3
CC(C)(C)OC(=O)NCC(O)CNC(=O)OC(C)(C)C | > 100 | > 100 | > 100 | > 100 | > 100 | > 100 | > 100 | > 100 | > 100 | > 100 | > 100 | > 100 | > 100 | > 100 |  | > 100 | > 100 | > 100 | > 100 | 
CCCCCN=Cc1c(O)c(O)c(C(C)C)c2cc(C)c(-c3c(C)cc4c(C(C)C)c(O)c(O)c(C=NCCCCC)c4c3O)c(O)c12 | > 100 | 97.6 | > 100 | > 100 | 22.2 | > 100 | > 100 | 87.4 | 33.1 | 27.2 | 17.8 | > 100 | > 100 | 26.5 |  | > 100 | 25.8 | > 100 | 18 | 
CC[N+](CC)(CCNCC(N)=O)CC(N)=O | > 10 | > 10 | > 10 | > 10 | > 10 | > 10 | > 10 | > 10 | > 10 | > 10 | > 10 | > 10 | > 10 | > 10 | > 10 |  |  | > 10 | > 10 | > 10
COC(C)(C)C1=CCC(C)CC1 (configuration not stated) | > 100 | > 100 |  | > 100 |  | > 100 | > 100 | > 100 | > 100 | > 100 | > 100 |  | > 100 | > 100 | > 100 | 78 |  | > 100 | > 100 | > 100
